According to US20110190249A1, “THERAPEUTIC METHODS AND USES OF SAPOGENINS AND THEIR DERIVATIVES” (PHYTOPHARM PLC, priority 2002, published 2011):

Tests used:
[1] = system: rat primary cortical neurones; assay: Neurite outgrowth in rat primary cortical neurones; assay type: cell-based; conditions: for Number of neurones displaying neurites, Mean ± s.e.m (%): control 47 ± 2; for Neurite length measured using optical micrometry, Mean ± s.e.m (%): control 100 ± 4
Source text: Neurodegenerative disorders are characterised by a progressive loss of neurones and degradation of neuronal processes (neurites). Agents that induce neurite outgrowth may promote the formation of new connections between neurones and ameliorate the symptoms of neurodegenerative conditions (Katzman et al, Faseb J., 5, 278-286, 1991).

[2] = system: rat primary spinal motor neurones; assay: Glutamate-induced neurodegeneration in spinal motor neurones (LDH); assay type: cell-based; conditions: control 100 ± 1
Experimental: The objective of this study was to examine the effects of sarsasapogenin and smilagenin on the survival of rat primary spinal motor neurones exposed to glutamate, which is known to induce neurodegeneration in this model of motor neurodegeneration.
Rat motor neurones were prepared according to the method described by (Martinou et al, Neuron, 8, 737-744, 1992). On day 10, medium was removed and the cultures were exposed to glutamate (4 microM) for 10 min at 37° C. in defined medium. After the glutamate exposure, cultures were washed with Dulbecco modified Eagle medium at 37° C. then placed in fresh culture medium containing test compounds. After 48 h, the extent of spinal motor neurone degeneration was determined by measuring the amount of lactate dehydrogenase (LDH) released into the culture medium as above.

[3] = system: muscarinic acetylcholine receptor; assay: Brain muscarinic acetylcholine receptor density in aged rats (dual-site competitive ligand binding); assay type: in vivo, rat; conditions: 18 mg kg−1 day−1 oral, 2-3 months
Experimental: Aged Sprague-Dawley rats aged were divided into different groups, one control and groups treated for 2-3 months with either sarsasapogenin, episarsasapogenin cathylate or smilagenin (18 mg kg^−1 day^−1, n=10). A control group (n=14) of untreated young rats was also included in the study. The daily dose of drug was mixed in a minimum amount of food and was administered every morning separately to each rat.
Muscarinic acetylcholine receptor density in the brain was measured. Tissue was prepared as follows: brains were removed quickly after decapitation, frozen in dry ice, and transferred to a freezer. The brains were homogenised and the pellet was finally suspended in buffer.
The dual-site competitive ligand binding assay was used to measure muscarinic acetylcholine receptor density.

SMILES: C[C@@H]1CC[C@@]2(OC1)O[C@H]1C[C@H]3[C@@H]4CC[C@@H]5C[C@@H](O)CC[C@]5(C)[C@H]4CC[C@]3(C)[C@H]1[C@@H]2C [smilagenin]
- Number of neurones displaying neurites, Mean ± s.e.m (%) ([1]; 0.3 pM): 63 ± 2%
- Neurite length measured using optical micrometry, Mean ± s.e.m (%) ([1]; 0.3 pM): 159 ± 5%
- Number of neurones displaying neurites, Mean ± s.e.m (%) ([1]; 3 pM): 63 ± 2%
- Neurite length measured using optical micrometry, Mean ± s.e.m (%) ([1]; 3 pM): 190 ± 8%
- Number of neurones displaying neurites, Mean ± s.e.m (%) ([1]; 30 pM): 66 ± 2%
- Neurite length measured using optical micrometry, Mean ± s.e.m (%) ([1]; 30 pM): 204 ± 6%
- Glutamate-induced neurodegeneration in spinal motor neurones, Mean ± s.e.m (%) ([2]; 0.03 nM for 48 h after glutamate 4 microM 10 min): 128 ± 4%
- Glutamate-induced neurodegeneration in spinal motor neurones, Mean ± s.e.m (%) ([2]; 3 nM for 48 h after glutamate 4 microM 10 min): 154 ± 1%
- Glutamate-induced neurodegeneration in spinal motor neurones, Mean ± s.e.m (%) ([2]; 300 nM for 48 h after glutamate 4 microM 10 min): 144 ± 4%
- Muscarinic acetylcholine receptor density in brain [3]: significantly restored
